Patent publication US20100015058A1, “RADIOLABELED BBN-RGD HETERODIMERS FOR CANCER TARGETING” (STANFORD UNIVERSITY, priority 2008, published 2010)

Legend:
T47D tumor cells = assay: Cell uptake assay on T47D tumor cells; type: cell-based, human; conditions: 120 min, 37° C., n=3
Protocol: The cells suspensions were collected and measured in a y counter (Packard, Meriden, Conn.). The cell uptake was expressed as the percent added dose (% AD) after decay correction. Experiments were performed twice with triplicate wells.

[1] = Small-animal PET of PC-3 tumor-bearing mice; conditions: mouse, in vivo, iv, total radioactivity; for tissue to tissue ratio at 2 h: T/NT ratio
Protocol: (a) PET scans and image analysis were performed using a micro-PET R4 rodent model scanner (Siemens Medical Solutions) as reported by Li et al., J. Nucl. Med. (2007) 48: 1162-1171 and Wu et al., J Nucl. Med. (2005) 46: 1707-1718, both of which are incorporated herein by reference in their entireties). […] Five-minute static PET images were then acquired at 0.5, 1, and 2 h after injection. The images were reconstructed by a 2-dimensional ordered-subsets expectation maximum (OSEM) algorithm. No attenuation or scatter correction was applied. […] The 5-min static PET scans were then acquired at 1 hr after injection. For each small-animal PET scan, regions of interest (ROIs) were drawn over the tumor, normal tissue, and major organs by using vendor software (ASI Pro 5.2.4.0) on decay-corrected whole-body coronal images. The average radioactivity concentration (accumulation) within a tumor or an organ was obtained from mean pixel values within the multiple ROI volume, which were converted to counts/mL/min using a conversion factor. Assuming a tissue density of 1 g/mL, the ROIs were converted to counts/g/min, and then divided by the administered activity to obtain an imaging ROI-derived percentage injected dose per gram of tissue (% ID/g).
For dynamic PET, 30-min scans (1×30 s, 4×1 min, 1×1.5 min, 4×2 min, 5×3 min; total 15 frames) were started 1 min after injection, and two 5-min static PET images were also acquired at 1 h and 2 h after injection. […] For each small-animal PET scan, regions of interest (ROIs) were drawn over the tumor, normal tissue, and major organs using vendor software ASI Pro 5.2.4.0 on decay-corrected whole-body coronal images. The maximum radioactivity concentrations (accumulation) within a tumor or an organ were obtained from mean pixel values within the multiple ROI volume, and were converted to megabecquerels per milliliter per minute using a conversion factor. These values were then divided by the administered activity to obtain (assuming a tissue density of 1 g/ml) an image ROI-derived percent injected dose per gram (% ID/g).
The images were reconstructed using a 2-dimensional ordered-subsets expectation maximum algorithm without attenuation or scatter correction.
For each small-animal PET scan, regions of interest were drawn over each tumor, over normal tissue, and over major organs using vendor software (ASI Pro, version 5.2.4.0) on decay-corrected whole-body coronal images. The maximum radioactivity concentration (accumulation) within a tumor or an organ was obtained from the mean pixel values within the multiple-region-of-interest volume, which were converted to MBq/mL/min using a conversion factor. Assuming a tissue density of 1 g/mL, the regions of interest were converted to MBq/g/min and then divided by the administered activity to obtain an imaging region-of-interest-derived percentage injected dose (% ID)/g.

[2] = Small-animal PET of MDA-MB-435 tumor-bearing mice; conditions: female, athymic nude, mouse, in vivo, iv, total radioactivity, MDA-MB-435 tumor uptake
Protocol: The MDA-MB435 tumor model was established by orthotopic injections of 5×10^6 cells into the right mammary fat pad of female athymic nude mice. […] The mice were subjected to microPET studies when the tumor volume reached 100-300 mm^3 (2-3 weeks for MDA-MB-435, and 4-5 wk for T47D).
For static PET, 5-min scans were acquired at 30 min, 1 h, and 2 h after injection. For dynamic PET, 30-min scans (1×30 s, 4×1 min, 1×1.5 min, 4×2 min, 5×3 min; total 15 frames) were started 1 min after injection, and two 5-min static PET images were also acquired at 1 h and 2 h after injection. The images were reconstructed using a two-dimensional ordered subsets expectation maximum (OSEM) algorithm and no correction was applied for attenuation or scatter. […] For each small-animal PET scan, regions of interest (ROIs) were drawn over the tumor, normal tissue, and major organs using vendor software ASI Pro 5.2.4.0 on decay-corrected whole-body coronal images. The maximum radioactivity concentrations (accumulation) within a tumor or an organ were obtained from mean pixel values within the multiple ROI volume, and were converted to megabecquerels per milliliter per minute using a conversion factor. These values were then divided by the administered activity to obtain (assuming a tissue density of 1 g/ml) an image ROI-derived percent injected dose per gram (% ID/g).
(§1) Quantification of tumor and major organ activity accumulation in the microPET scans was realized by measuring the regions of interest (ROIs) that encompassing the entire organ on the coronal images.

[3] = MicroPET of T47D tumor-bearing mice; type: in vivo; conditions: female, nude, mouse, T47D tumor, iv, total radioactivity, orthotopic model
Text: The MDA-MB-231, MDA-MB468, BT474, BT-20, T47D, MCF-7 and MDA-MB435 human breast cancer cell lines were all obtained from the American Type Culture Collection (ATCC) and maintained under standard conditions according to ATCC. The MDA-MB435 tumor model was established by orthotopic injections of 5×10^6 cells into the right mammary fat pad of female athymic nude mice. For T47D tumor model establishment, the female nude mice were first subcutaneously implanted with 60-day release 17β-estradiol pellets (Innovative Research of America, Sarasota, Fla.) in the left neck. One day after the estradiol implantation, 1×10^7 T47D cells were orthotopically injected into the right mammary fat pad of the nude mice. The mice were subjected to microPET studies when the tumor volume reached 100-300 mm^3 (2-3 weeks for MDA-MB-435, and 4-5 wk for T47D).
as §1

[4] = MicroPET blood and normal organ uptake in T47D and MDA-MB-435 tumor-bearing nude mice; conditions: for tissue uptake at 2 h / tissue uptake at 0.5 h / tissue uptake at 1 h: nude, mouse, iv, total radioactivity
Text: The T47D or MDA-MB435 tumor uptake is expressed as the average of each tracer in four mice, while the normal organ uptake is expressed as the average of each tracer in eight mice (four T47D tumor-bearing mice and four MDA-MB-435 tumor-bearing mice per tracer).

[5] = male, athymic nude, 3.7 MBq, PC-3 tumor uptake
[6] = male, athymic nude, 3.7 MBq, PC-3 tumor uptake, dynamic scan
[7] = male, athymic nude, 3.7 MBq, PC-3 tumor uptake, static scan after dynamic scan

SMILES: CSCC[C@H](NC(=O)[C@H](CC(C)C)NC(=O)[C@H](Cc1c[nH]cn1)NC(=O)CNC(=O)[C@@H](NC(=O)[C@H](C)NC(=O)[C@H](Cc1c[nH]c2ccccc12)NC(=O)[C@H](CCC(N)=O)NC(=O)CCCCCNC(=O)CC[C@H](NC(=O)COCCOCCOCCNC(=O)c1ccc([18F])cc1)C(=O)NCCCC[C@@H]1NC(=O)[C@@H](Cc2ccc(O)cc2)NC(=O)[C@H](CC(=O)O)NC(=O)CNC(=O)[C@H](CCCNC(=N)N)NC1=O)C(C)C)C(N)=O [^18F-FB-PEG3-RGD-BBN]
- T47D cell uptake value (T47D tumor cells): 4.25±0.13 % AD
- tissue uptake at 1 h ([1]; male, athymic nude, 10 mg/kg, PC-3 tumor uptake with RGD blocking, 1 h, 3.7 MBq, co-injected c(RGDyK) 10 mg/kg): 2.19 ± 0.97 %ID/g
- tissue uptake at 0.5 h [1, 5]: 6.35 ± 2.52 %ID/g
- tissue uptake at 1 h [1, 5]: 4.41 ± 0.71 %ID/g
- tissue uptake at 2 h [1, 5]: 2.47 ± 0.81 %ID/g
- tissue uptake at 5 min [1, 6]: 3.54 %ID/g
- tissue uptake at 0.25 h [1, 6]: 4.86 %ID/g
- tissue uptake at 0.5 h [1, 6]: 5.64 %ID/g
- tissue uptake at 1 h [1, 7]: 4.08 %ID/g
- tissue uptake at 2 h [1, 7]: 2.88 %ID/g
- tissue uptake at 0.5 h ([1]; male, athymic nude, 3.7 MBq, liver uptake (highest)): < 2 %ID/g
- tissue uptake at 1 h ([1]; male, athymic nude, PC-3 tumor uptake with BBN blocking, 1 h, 3.7 MBq, co-injected Aca-BBN(7-14) 15 mg/kg): 1.58 ± 0.52 %ID/g
- tissue uptake at 1 h ([1]; male, athymic nude, PC-3 tumor uptake with RGD+BBN blocking, 1 h, 3.7 MBq, co-injected RGD 10 mg/kg and BBN 15 mg/kg): 0.43 ± 0.08 %ID/g
- tissue to tissue ratio at 2 h ([1]; tumor/blood): 8.1 ± 1.14
- tissue to tissue ratio at 2 h ([1]; tumor/kidneys): 1.44 ± 0.05
- tissue to tissue ratio at 2 h ([1]; tumor/liver): 6.43 ± 0.81
- tissue to tissue ratio at 2 h ([1]; tumor/muscle): 10.5 ± 0.75
- tissue uptake at 0.5 h [2]: 2.72 ± 0.8 %ID/g
- tissue uptake at 1 h [2]: 1.59 ± 0.65 %ID/g
- tissue uptake at 2 h [2]: 0.84 ± 0.22 %ID/g
- tissue uptake at 0.5 h ([3]; 0.5 h): 2.96 ± 0.53 %ID/g
- tissue uptake at 1 h ([3]; 1 h): 1.81 ± 0.34 %ID/g
- tissue uptake at 2 h ([3]; 2 h): 0.91 ± 0.12 %ID/g
- Liver uptake ([4]; average of eight mice, 0.5 h): 1.13±0.43 % ID/g
- Kidney uptake ([4]; average of eight mice, 2 h): 0.74±0.19 % ID/g
- tissue uptake at 2 h ([4]; female, kidney): 0.74 ± 0.19 %ID/g
- tissue uptake at 0.5 h ([4]; female, liver): 1.13 ± 0.43 %ID/g
- tissue uptake at 0.5 h ([4]; blood): 0.78 ± 0.37 %ID/g
- tissue uptake at 1 h ([4]; blood): 0.41 ± 0.11 %ID/g
- tissue uptake at 2 h ([4]; blood): 0.18 ± 0.02 %ID/g
- tissue uptake at 0.5 h ([4]; kidney): 2.77 ± 0.78 %ID/g
- tissue uptake at 1 h ([4]; kidney): 1.56 ± 0.32 %ID/g
- tissue uptake at 1 h ([4]; liver): 0.56 ± 0.21 %ID/g
- tissue uptake at 2 h ([4]; liver): 0.23 ± 0.07 %ID/g
- tissue uptake at 0.5 h ([4]; muscle): 0.81 ± 0.23 %ID/g
- tissue uptake at 1 h ([4]; muscle): 0.33 ± 0.17 %ID/g
- tissue uptake at 2 h ([4]; muscle): 0.15 ± 0.05 %ID/g
